Columns and labels:
[1] = system: gene expression in muscle; test: Quantitative real-time PCR gene expression in muscle of obese, insulin resistant Wistar rats; type: in vivo
Protocol: Three week old male rats were fed a high fat diet for 24 weeks to induce obesity and insulin resistance. Thereafter, rats were treated with 0.3 mg/kg Rx-1 daily for two weeks, and then with 3 mg/kg Rx-1 daily for seven days. Fasting glucose concentrations were measured before treatment, after two weeks treatment with 0.3 mg/kg Rx-1 and then again after seven days treatment with 3 mg/kg Rx-1. After treatment with 3 mg/kg Rx-1 rats were terminated and liver, muscle and pancreas biopsies were taken. Quantitative real-time PCR was used to measure the expression of 12 genes in liver and muscle samples, and ten genes in pancreas samples.
Rats were housed at the Primate Unit (Medical Research Council, South Africa). Rat management including feeding, glucose measurements and terminations, were done according to standard operating procedures (Diabetes Discovery Platform, Medical Research Council). Briefly, three week old rats were fed a high fat diet for 24 weeks to induce T2D. The study group consisted of thirteen rats, eight rats were treated by daily gavage with 0.3 mg/kg Rx-1 for two weeks, and then with 3 mg/kg Rx-1 for seven days. Five rats were used as controls and were treated with water only for three weeks. Rats were terminated after treatment and liver, muscle and pancreas tissue harvested and stored in RNalater (Ambion) as recommended by the manufacturer. The study was approved by the ethics committee of the Medical Research Council of South Africa.
RNA extracted from liver, muscle and pancreas tissue was converted to cDNA using the High Capacity Reverse Transcription kit as recommended by the manufacturers (Applied Biosystems). In brief, 2 μg of DNase-treated RNA was added to nuclease-free water in a volume of 10 μl. Thereafter, 2 μl reaction buffer, 0.8 μl dNTPs, 2 μl random primers, 1 μl RNase-inhibitor, 1 μl reverse transcriptase, and 3.2 μl nuclease-free water were added. The same reaction without the reverse transcription enzyme (minus RT reaction) was set-up to investigate genomic DNA contamination. Reactions were incubated at 25° C. for 10 min, 37° C. for 120 min, and 85° C. for 5 s to inactivate the reverse transcriptase. cDNA samples were stored at −20° C. until expression analysis.
For analysis of gene expression, 25 ng of cDNA prepared from liver, muscle and pancreas was mixed with 12.5 μl Taqman universal PCR master mix (Applied Biosystems), 1.25 μl gene-specific primer and probe mixtures (predeveloped Taqman gene expression assays, Applied Biosystems), and H2O in a final volume of 25 μl. The suffix _m represents an assay whose probe spans an exon-exon junction of the associated gene and therefore will not detect genomic DNA, while the suffix _s represents an assay whose primers and probes are designed within a single exon, such assays will detect genomic DNA.
The PCR reactions were conducted on the ABI 7500 Sequence Detection System Instrument (Applied Biosystems) using universal cycling conditions as described before. All samples were run in duplicate. Data generated on the ABI 7500 Instrument were analysed with the ABI Relative Quantitation (RQ) software (SDS V1.4) using a Ct threshold of 0.1. Relative expression levels were determined by using the 2^−ΔΔCt method, where ΔΔCt=(Ctgene studied−Cthousekeeping gene)treated−(Ctgene studied−Cthousekeeping gene)control. The gene expression was normalised to housekeeping genes to correct for differences in cDNA loading. Two gene expression assays, β-actin (ActB) and glyceraldehyde-3-phosphate dehydrogenase (Gapdh) (Table 1) were used as endogenous controls. Relative gene expression data generated by the RQ software for each of the two endogenous controls individually or the data normalised to the average of the two endogenous controls were imported into Microsoft Excel and analysed. […]

Chang cells = test: 2-deoxy-[3H]-D-glucose uptake assay; type: cell-based; details: Chang cell cultures, 3 hrs exposure
Protocol: The glucose uptake of RX-1 and selected analogues after administration of test compounds to Chang cell cultures were determined in an operating protocol for the 2-deoxy-[^3H]-D-glucose. The protocol, which is described in more detail below, has been designed to test for the RX-1 (and RX-1 analogues) mediated glucose uptake. In Table the EC50 values for the uptake for RX-1 and representative analogues is shown.
Stock solutions of the RX-1 analogues supplied in cryo vials (DrugMode) was prepared by diluting the compound with […] sterile tissue culture grade water. This will yield a 5 mM stock solution. If the analogue […] an additional 50 μl methanol will be added (this will be recorded clearly on the log sheet). This will yield a 4 mM stock solution. Stock solutions will be kept on ice at all times and analogues will be stored in 20 μl aliquots at −80 C for subsequent use. Tubes that have been thawed will be clearly marked on the label.
RX-1 (10 μM) Positive Control Solution • To prepare a 10 μM RX-1 solution as positive control. Add 30 μl to 2970 μl modified DMEM media supplemented with 8 mM glucose.
RX-1 Analogue (31.6 μM) Test Solutions • To prepare a 31.6 μM RX-1 analogue test solution. Add 19 μl of the 5 mM to 2981 μl modified DMEM media supplemented with 8 mM glucose. To prepare a 31.6 μM RX-1 analogue test solution from a 4 mM stock solution, add 24 μl to 2976 μl modified DMEM media supplemented with 8 mM glucose.
Cell Seeding in 24-Well Plates • Chang cells are cultured according to procedures described in MRC cell culture SOPs: TC-B2a Thawing of cells and TC-B1a Cell line maintenance—general principles. Make sure cells are in the log phase (i.e. <70% confluence) and less than 20 passages. • Harvest cells using 0.25% (w/v) Trypsin/0.53 mM EDTA solution. • Count cells and resuspend to 30 000 cells/ml (Chang cell seeding density for 24-well plate=30 000 cells/ml) in EMEM (with pyruvate and NEAA, but without L-glutamate (Lonza, USA) containing 10% FBS (Gibco, UK) and pipette 1 ml/well cell suspension to a 24-well plate corresponding to 30 000 cells/well.
• after 3 days of cell growth, aspirate medium • wash cells once with pre-warmed DPBS at 37° C. • add 500 μl of pre-warmed 37° C. DMEM/0.1% BSA (without phenol red, glucose and pyruvate) to serum starve cells to remove residual glucose and FBS • incubate at 37° C. in humidified air and 5% CO2 for 30 min • aspirate DMEM/0.1% BSA (without phenol red, glucose and pyruvate) • Prepare test dilutions as specified in the plate layout (see below) • add 500 μl pre-warmed 37° C. of test dilution per well according to plate layout • incubate at 37° C. in humidified air and 5% CO2 for 3 hrs • remove test medium and wash cells once with DPBS (37° C.) • add 250 μl of test medium containing 0.5 μCi/ml ^3H-2-DOG to each well use (0.5 μl ^3H to 1 ml medium) • Incubate cells at 37° C. in humidified air and 5% CO2 for 15 min • Aspirate medium • To stop the reaction, wash cells twice with ice-cold DPBS • Aspirate DPBS and ensure that wells are as dry as possible • Lyse cells by adding 1 ml of 0.3N NaOH/1% SDS and incubate at 37° C. for at least 45 min • Mix cell lysate thoroughly before subsequent use in LSC and Bradford protein determination

O=C(O)/C(=C/c1ccccc1)O[C@@H]1O[C@H](CO)[C@@H](O)[C@H](O)[C@H]1O [RX-1, 3-Phenyl-2-(3,4,5-trihydroxy-6-hydroxymethyl-tetrahydro-pyran-2-yloxy)-acrylic acid] was tested, and the “Gck mRNA levels” value [1] was “decreased”, the “Glut4 mRNA levels” value [1] was “unaffected” and the IR gene expression [1] was “did not affect”. For the same molecule, the “IRS1 mRNA levels” value [1] was “unchanged”, the “IRS2 mRNA levels” value [1] was “unchanged” and the GcgR gene expression ([1]; not statistically significant) was “increased”. The “SOCS1 mRNA expression” value ([1]; not statistically significant) was “increased”, the “SOCS3 mRNA expression” value ([1]; not statistically significant) was “increased” and the EC50 (Chang cells) was 3.22 µM.
